From patent US6753337B2, “Alkynyl containing hydroxamic acid compounds as matrix metalloproteinase/tace inhibitors” (Wyeth Holdings Corporation, priority 1999, dated 2004)
pIC50: −log10 of the molar value. Counter-ions that a name gives are not always drawn.

How the values were obtained:
MMP-13 = MMP-13 (Homo sapiens, UniProt P45452); assay: MMP-13 inhibition (thiopeptide or fluorescent peptide substrate); type: biochemical; settings: for pIC50: read-out: MMP13 IC50
Procedure: The enzyme activity is measured by the rate of the color increase. The thiopeptide substrate is made up fresh as a 20 mM stock in 100% DMSO and the DTNB is dissolved in 100% DMSO as a 100 mM stock and stored in the dark at room temperature. Both the substrate and DTNB are diluted together to 1 mM with substrate buffer (50 mM HEPES pH 7.5, 5 mM CaCl2) before use. The stock of enzyme is diluted with buffer (50 mM HEPES, pH 7.5, 5 mM CaCl2, 0.02% Brij) to the desired final concentration.
(§1) Alternatively, a fluorescent peptide substrate is used. In this test procedure, the peptide substrate contains a fluorescent group and a quenching group. Upon cleavage of the substrate by an MMP, the fluorescence that is generated is quantitated on the fluorescence plate reader. The assay is run in HCBC assay buffer (50 mM HEPES, pH 7.0, 5 mM Ca^+2, 0.02% Brij, 0.5% Cysteine), with human recombinant MMP-1, MMP-9, or MMP-13. The substrate is dissolved in methanol and stored frozen in 1 mM aliquots. For the assay, substrate and enzymes are diluted in HCBC buffer to the desired concentrations. Compounds are added to the 96 well plate containing enzyme and the reaction is started by the addition of substrate.
For either the thiopeptide or fluorescent peptide test procedures, the slope of the line is calculated and represents the reaction rate. […] The mean (x±sem) of the control rate is calculated and compared for statistical significance (p<0.05) with drug-treated rates using Dunnett's multiple comparison test.

THP-1 cells = assay: Human monocytic THP-1 cell differentiation assay for soluble proteins (THP-1 soluble protein assay); type: cell-based; settings: LPS-stimulated THP-1 cells, soluble protein not given
Description: Mitogenic stimulation of THP-1 cells cause differentiation into macrophage like cells with concomitant secretion of tumor necrosis factor (TNF-α) and TNF receptor (TNF-R p75/80 and TNF-R p55160) and Interleukin-8 (IL-8), among other proteins. In addition, non-stimulated THP-1 cells shed both the p75/80 and the p55/60 receptors over time. The release of membrane bound TNF-α and possibly TNF-R p75/80 and TNF-R p55/60, but not IL-8, is mediated by an enzyme called TNF-α converting enzyme or TACE.
THP-1 cells (from ATCC) are a human monocytic cell line which were obtained from the peripheral blood of a person with acute monocytic leukemia. They can be grown in culture and differentiated into macrophage like cells by stimulation with mitogens.
Each vial of cells are cultured for about two weeks prior to being used for an assay and then are used for only 4 to 6 weeks to screen compounds.
Cell exposure to DMSO was limited to 0.1% final concentration. […] Compounds can be evaluated for their effect on basal (non-stimulated) shedding of the receptors by replacing the LPS with […] of THP-1 media.
Plates are placed into an incubator set at 5% CO2 and at 37° C. After 4 hours of incubation, […] of tissue culture supernatant (TCS) is removed for use in an TNF-α ELISA. Following 24 hours of incubation, […] of TCS is removed and used for analysis in TNF-R p75/80, TNF-R p55160 and IL-8 ELISAs.
In addition, at the 24 hours timepoint, and the cells for each treatment group are collected by resuspension in 500 μl/well of THP-1 media and transferred into a FACS tube. […] The samples are run on a Becton Dickinson FaxCaliber FLOW cytometry machine and the amount of dye taken up by each cell is measured in the high red wavelength (FL3). Only cells with compromised membranes (dead or dying) can take up PI. The percent of live cells is calculated by the number of cells not stained with PI, divided by the total number of cells in the sample. The viability values calculated for the drug treated groups were compared to the viability value calculated for the vehicle treated mitogen stimulated group (“vehicle positive control”) to determine the “percent change from control”. This “percent change from control” value is an indicator of drug toxicity.
The quantity of soluble TNF-α, TNF-R p75/80 and TNF-R p55160 and IL-8 in the TCS of the THP-1 cell cultures are obtained with commercially available ELISAs from R&D Systems, by extrapolation from a standard curve generated with kit standards. The number of cells that either take up or exclude PI are measured by the FLOW cytometry machine and visualized by histograms using commercially available Cytologic software for each treatment group including all controls.
Biological variability in the magnitude of the response of THP-1 cell cultures requires that experiments be compared on the basis of percent change from “vehicle positive control” for each drug concentration. Percent change in each soluble protein evaluated from the “vehicle positive control” was calculated for each compound concentration with the following formula: [formula]
For the soluble protein (TNF-α, p75/80, p55/60, IL-8) studies under stimulated conditions, the mean pg/ml of duplicate wells were determined and the results expressed as percent change from “vehicle positive control”. For the soluble protein (p75/80 and p55/60 receptors) studies under non-stimulated conditions, the mean pg/ml of duplicate wells were determined and the results expressed as percent change from “vehicle positive control” utilizing the following formula: [formula]
IC50 values for each compound are calculated by non-linear regression analysis using customized software utilizing the JUMP statistical package.
For the cell viability studies, the viabilities (PI exclusion) of pooled duplicate wells were determined and the results expressed as % change from “vehicle positive control”.

[1] = target: TNF-α converting enzyme (TACE) (Homo sapiens, UniProt P78536); assay: Test procedure for measuring TACE inhibition (fluorescent peptidyl substrate); type: biochemical
Procedure: Using 96-well black microtiter plates, each well receives a solution composed of 10 μL TACE (final concentration 1 μg/mL), 70 μL Tris buffer, pH 7.4 containing 10% glycerol (final concentration 10 mM), and 10 μL of test compound solution in DMSO (final concentration 1 μM, DMSO concentration <1%) and incubated for 10 minutes at room temperature. The reaction is initiated by addition of a fluorescent peptidyl substrate (final concentration 100 μM to each well and then shaking on a shaker for 5 sec.
The reaction is read (excitation 340 nm, emission 420 nm) for 10 min. and the increase in fluorescence over time is plotted as a linear line. The slope of the line is calculated and represents the reaction rate.
The mean (x±sem) of the control rate is calculated and compared for statistical significance (p<0.05) with drug-treated rates using Dunnett's multiple comparison test.

MMP-9 = MMP-9 (Homo sapiens, UniProt P14780); assay: MMP-9 inhibition (thiopeptide or fluorescent peptide substrate); type: biochemical; settings: for pIC50: read-out: MMP9 IC50
Procedure: (§2) These standard pharmacological test procedures are based on the cleavage of a thiopeptide substrates such as Ac-Pro-Leu-Gly(2-mercapto-4-methyl-pentanoyl)-Leu-Gly-OEt by the matrix metalloproteinases MMP-1, MMP-13 (collagenases) or MMP-9 (gelatinase), which results in the release of a substrate product that reacts colorimetrically with DTNB (5,5′-dithiobis(2-nitro-benzoic acid)). The enzyme activity is measured by the rate of the color increase. The thiopeptide substrate is made up fresh as a 20 mM stock in 100% DMSO and the DTNB is dissolved in 100% DMSO as a 100 mM stock and stored in the dark at room temperature. Both the substrate and DTNB are diluted together to 1 mM with substrate buffer (50 mM HEPES pH 7.5, 5 mM CaCl2) before use. The stock of enzyme is diluted with buffer (50 mM HEPES, pH 7.5, 5 mM CaCl2, 0.02% Brij) to the desired final concentration. The buffer, enzyme, vehicle or inhibitor, and DTNB/substrate are added in this order to a 96 well plate (total reaction volume of 200 μl) and the increase in color is monitored spectrophotometrically for 5 minutes at 405 nm on a plate reader and the increase in color over time is plotted as a linear line.
as §1, with “substrate. The reaction is read (excitation 340 nm, emission 444 nm) for 10 min. and the increase in fluorescence over time is plotted as a linear line.” for “substrate.”
(§3) For either the thiopeptide or fluorescent peptide test procedures, the slope of the line is calculated and represents the reaction rate. The linearity of the reaction rate is confirmed (r^2>0.85). The mean (x±sem) of the control rate is calculated and compared for statistical significance (p<0.05) with drug-treated rates using Dunnett's multiple comparison test. Dose-response relationships can be generated using multiple doses of drug and IC50 values with 95% CI are estimated using linear regression.

MMP-1 = target: T1, MMP-1 (Homo sapiens, UniProt P03956); assay: MMP-1 inhibition (thiopeptide or fluorescent peptide substrate); type: biochemical; settings: for pIC50: read-out: MMP1 IC50
T1 sequence (P03956 100-469): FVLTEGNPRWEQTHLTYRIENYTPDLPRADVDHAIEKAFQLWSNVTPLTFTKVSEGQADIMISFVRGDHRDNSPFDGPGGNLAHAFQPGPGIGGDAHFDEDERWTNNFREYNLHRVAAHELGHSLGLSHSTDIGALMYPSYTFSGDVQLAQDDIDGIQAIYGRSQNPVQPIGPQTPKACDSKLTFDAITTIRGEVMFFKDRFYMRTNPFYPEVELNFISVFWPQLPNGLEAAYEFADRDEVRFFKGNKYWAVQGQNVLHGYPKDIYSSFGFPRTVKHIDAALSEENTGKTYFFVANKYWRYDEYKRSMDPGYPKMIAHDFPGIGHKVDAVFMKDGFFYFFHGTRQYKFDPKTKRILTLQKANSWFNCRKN
Procedure: as §2
as §1, with “substrate. The reaction is read (excitation 340 nm, emission 444 nm) for 10 min. and the increase in fluorescence over time is plotted as a linear line.” for “substrate.”
as §3

TNF-α converting enzyme (TACE), sequence (P78536 215-824): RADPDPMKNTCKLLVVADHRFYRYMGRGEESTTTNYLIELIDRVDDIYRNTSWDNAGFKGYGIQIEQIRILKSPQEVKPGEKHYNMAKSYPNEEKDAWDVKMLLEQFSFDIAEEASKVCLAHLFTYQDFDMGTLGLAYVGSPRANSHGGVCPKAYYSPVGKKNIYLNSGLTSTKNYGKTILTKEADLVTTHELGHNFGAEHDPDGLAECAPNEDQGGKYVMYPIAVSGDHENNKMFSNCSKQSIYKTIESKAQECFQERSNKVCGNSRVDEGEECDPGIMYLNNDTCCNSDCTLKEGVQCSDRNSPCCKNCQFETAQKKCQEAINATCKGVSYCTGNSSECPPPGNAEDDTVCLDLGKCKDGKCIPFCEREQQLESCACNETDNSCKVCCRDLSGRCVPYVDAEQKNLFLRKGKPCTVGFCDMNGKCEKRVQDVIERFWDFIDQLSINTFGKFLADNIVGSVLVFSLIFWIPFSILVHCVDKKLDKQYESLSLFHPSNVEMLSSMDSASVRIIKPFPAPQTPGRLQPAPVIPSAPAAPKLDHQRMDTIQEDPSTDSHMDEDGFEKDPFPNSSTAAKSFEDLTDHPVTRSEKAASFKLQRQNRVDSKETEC
MMP-9, sequence (P14780 94-707): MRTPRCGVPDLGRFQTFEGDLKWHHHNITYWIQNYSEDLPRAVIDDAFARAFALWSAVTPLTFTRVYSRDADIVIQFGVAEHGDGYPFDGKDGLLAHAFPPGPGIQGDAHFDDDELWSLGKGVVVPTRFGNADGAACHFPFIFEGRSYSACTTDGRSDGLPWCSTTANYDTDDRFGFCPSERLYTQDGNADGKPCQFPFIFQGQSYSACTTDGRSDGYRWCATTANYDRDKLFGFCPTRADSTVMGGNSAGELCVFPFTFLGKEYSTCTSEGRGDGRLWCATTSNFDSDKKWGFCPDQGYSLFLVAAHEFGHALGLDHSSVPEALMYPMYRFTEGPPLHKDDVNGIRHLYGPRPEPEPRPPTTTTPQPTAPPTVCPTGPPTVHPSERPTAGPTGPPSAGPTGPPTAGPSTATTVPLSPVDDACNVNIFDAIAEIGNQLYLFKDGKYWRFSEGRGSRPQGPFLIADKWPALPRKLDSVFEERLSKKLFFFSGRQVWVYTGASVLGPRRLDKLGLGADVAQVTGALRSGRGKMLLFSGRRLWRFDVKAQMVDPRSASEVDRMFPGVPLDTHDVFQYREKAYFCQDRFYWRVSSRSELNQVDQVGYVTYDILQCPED

| SMILES | pIC50 (MMP-13) | inhibition at 3 µM (THP-1 cells) [%] | pIC50 [1] | pIC50 (MMP-9) | also measured |
| --- | --- | --- | --- | --- | --- |
| CC#CCOc1ccc(S(=O)(=O)C2(C(=O)NO)CCN(Cc3ccc(Cl)c(Cl)c3)CC2)cc1 (as salt: HCl) [Example 10, 4-(4-But-2-ynyloxy-benzenesulfonyl)-1-(3,4-dichloro-benzyl)-piperidine-4-carboxylic acid hydroxyamide] | – | – | – | – | melting point: 213 °C |
| CCCCCC#CCOc1ccc(S(=O)(=O)C2(C(=O)NO)CCN(Cc3ccc(Br)cc3)CC2)cc1 (as salt: hydrochloride) [Example 6, 1-(4-Bromo-benzyl)-4-(4-oct-2-ynyloxy-benzenesulfonyl)-piperdine-4-carboxylic acid hydroxyamide] | – | – | – | – | melting point: 140 °C |
| O=C(NO)C1(S(=O)(=O)c2ccc(OCC#CCN3CCOCC3)cc2)CCN(Cc2ccc(Br)cc2)CC1 [Example 13, 1-(4-Bromo-benzyl)-4-[4-(4-morpholin-4-yl-but-2-ynyloxy)-benzenesulfonyl]-piperdine-4-carboxylic acid hydroxyamide] | 6.10 | 69 | 6.05 | 5.70 | – |
| CC#CCOc1ccc(SC2(C(=O)NO)CCNCC2)cc1 [Example 15, 4-(4-But-2-ynyloxy-phenylsulfanyl)-piperidine-4-carboxylic acid hydroxyamide] | – | – | – | – | MMP13 % inhibition (MMP-13; MMP13 IC50, concentration not given): 24%; inhibition at 1 µM [1]: 38%; MMP9 % inhibition (MMP-9; printed in the MMP9 IC50 column, concentration not given): 25%; MMP1 % inhibition (MMP-1; printed in the MMP1 IC50 column, concentration not given): 24% |
| CC#CCOc1ccc(SCC2(C(=O)NO)CCOCC2)cc1 [Example 17, 4-(4-But-2-ynyloxy-phenylsulfanylmethyl)-tetrahydro-pyran-4-carboxylic acid hydroxyamide] | 6.02 | 0 | 6.86 | 5.64 | – |
| CC#CCOc1ccc(S(=O)(=O)CC2(C(=O)NO)CCOCC2)cc1 [Example 18, 4-(4-But-2-ynyloxy-benzenesulfonylmethyl)-tetrahydro-pyran-4-carboxylic acid hydroxyamide] | 7.01 | 45 | 7.94 | 5.89 | – |
| CC#CCOc1ccc([S+]([O-])CC2(C(=O)NO)CCOCC2)cc1 (centres unmarked) [Example 19, 4-(4-But-2-ynyloxy-benzenesulfinylmethyl)-tetrahydro-pyran-4-carboxylic acid hydroxyamide] | 5.88 | 4 | 7.13 | – | – |
| CC#CCOc1ccc(S(=O)(=O)CC2(C(=O)NO)CCN(CC#CC)CC2)cc1 [Example 37, 1-(2-Butynyl)-4-({[4-(2-butynyloxy)phenyl]sulfonyl}methyl)-N-hydroxy-4-piperidinecarboxamide hydrochloride] | 5.99 | – | 7.74 | 5.07 | pIC50 (MMP-1): 5.07 |
| CC#CCOc1ccc(S(=O)(=O)CC2(C(=O)NO)CCN(C(=O)OC)CC2)cc1 [Example 39, Methyl 4-({[4-(2-butynyloxy)phenyl]sulfonyl}methyl)-4-[(hydroxyamino)-carbonyl]-1-piperidinecarboxylate] | 6.09 | – | 7.96 | 5.37 | pIC50 (MMP-1): 5.42 |
